Measured values: PubChem BioAssay AID248 (DTP/NCI, 2004)
Where “and” joins values, the source holds several entries; their conditions need not be identical. Equal entries are not always repeated. Inconclusive results and toxic doses are left out. Cut-off read from the data, not from the text of the source: active = T/C of 150% or more; inactive = T/C below 125%.

System: L1210 leukemia ip in BDF1 mice, survival T/C
Assay: NCI In Vivo Anticancer Drug Screen. Data for tumor model L1210 Leukemia (intraperitoneal) in B6D2F1 (BDF1) mice
Conditions: endpoint: mean survival time, higher = longer survival
Summary of the method: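 Tumor was transplanted into mice, which were then dosed with test compound or vehicle alone. Survival was recorded for each group, and the treated figure was expressed relative to the control figure.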

[1] = dose: 100.0 mg/kg/injection, schedule: Q04DX002 (ip), vehicle: saline with Tween-80
[2] = dose: 200.0 mg/kg/injection, schedule: Q04DX002 (ip), vehicle: saline with Tween-80
[3] = dose: 400.0 mg/kg/injection, schedule: Q04DX002 (ip), vehicle: saline with Tween-80
[4] = dose: 100.0 mg/kg/injection, schedule: Q04DX002 (ip), vehicle: Klucel (hydroxypropylcellulose) (HPC)
[5] = dose: 200.0 mg/kg/injection, schedule: Q04DX002 (ip), vehicle: Klucel (hydroxypropylcellulose) (HPC)
[6] = dose: 400.0 mg/kg/injection, schedule: Q04DX002 (ip), vehicle: Klucel (hydroxypropylcellulose) (HPC)
[7] = dose: 12.5 mg/kg/injection, schedule: Q01DX009 (ip), vehicle: saline
[8] = dose: 25.0 mg/kg/injection, schedule: Q04DX003 (ip), vehicle: saline
[9] = dose: 50.0 mg/kg/injection, schedule: Q04DX003 (ip), vehicle: saline
[10] = dose: 100.0 mg/kg/injection, schedule: Q04DX003 (ip), vehicle: saline with Tween-80
[11] = dose: 200.0 mg/kg/injection, schedule: Q04DX003 (ip), vehicle: saline with Tween-80
[12] = dose: 400.0 mg/kg/injection, schedule: Q04DX003 (ip), vehicle: saline with Tween-80
[13] = dose: 50.0 mg/kg/injection, schedule: Q01DX009 (ip), vehicle: saline
[14] = dose: 100.0 mg/kg/injection, schedule: Q01DX001 (ip), vehicle: saline
[15] = dose: 100.0 mg/kg/injection, schedule: Q01DX009 (ip), vehicle: Klucel (hydroxypropylcellulose) (HPC)
[16] = dose: 100.0 mg/kg/injection, schedule: Q04DX003 (ip), vehicle: Klucel (hydroxypropylcellulose) (HPC)
[17] = dose: 200.0 mg/kg/injection, schedule: Q01DX009 (ip), vehicle: Klucel (hydroxypropylcellulose) (HPC)
[18] = dose: 200.0 mg/kg/injection, schedule: Q04DX003 (ip), vehicle: Klucel (hydroxypropylcellulose) (HPC)
[19] = dose: 400.0 mg/kg/injection, schedule: Q01DX009 (ip), vehicle: Klucel (hydroxypropylcellulose) (HPC)
[20] = dose: 400.0 mg/kg/injection, schedule: Q04DX003 (ip), vehicle: Klucel (hydroxypropylcellulose) (HPC)
[21] = dose: 50.0 mg/kg/injection, schedule: Q01DX001 (ip), vehicle: saline
[22] = dose: 100.0 mg/kg/injection, schedule: Q01DX009 (ip), vehicle: saline with Tween-80
[23] = dose: 200.0 mg/kg/injection, schedule: Q01DX009 (ip), vehicle: saline with Tween-80
[24] = dose: 400.0 mg/kg/injection, schedule: Q01DX009 (ip), vehicle: saline with Tween-80
[25] = dose: 100.0 mg/kg/injection, schedule: Q04DX003 (ip), vehicle: saline
[26] = dose: 200.0 mg/kg/injection, schedule: Q01DX001 (ip), vehicle: saline
[27] = dose: 400.0 mg/kg/injection, schedule: Q01DX001 (ip), vehicle: saline

Measured: T/C

O=C(O)CCCCOc1ccccc1
inactive: dose: 75.0 mg/kg/injection, schedule: Q04DX003 (ip), vehicle: saline 97 % of control | dose: 150.0 mg/kg/injection, schedule: Q04DX003 (ip), vehicle: saline 103 % of control

CCN(C(=O)c1ccc([N+](=O)[O-])cc1)C(c1ccco1)P(=O)(c1ccccc1)c1ccccc1 (stereo not given)
inactive: [1] 87 % of control | [2] 87 % of control | [3] 93 % of control

CC(=O)OCC(O)C(O)C(O)C(O)C=O (stereo not given) (tested in a mixture with another compound)
inactive: [4] 92 % of control | [5] 103 % of control | [6] 95 % of control

CSc1ccc2c(c1)N(CCC1CCCCN1C)c1ccccc1S2 (stereo not given)
inactive: dose: 0.78 mg/kg/injection, schedule: Q01DX009 (ip), vehicle: saline 101 % of control | dose: 1.56 mg/kg/injection, schedule: Q01DX009 (ip), vehicle: saline 103 % of control | dose: 3.12 mg/kg/injection, schedule: Q01DX009 (ip), vehicle: saline 94 % of control and 98 % of control | dose: 6.25 mg/kg/injection, schedule: Q01DX009 (ip), vehicle: saline 94 % of control and 101 % of control | [7] 98 % of control and 116 % of control | [8] 103 % of control | [9] 92 % of control

CC(=O)Nc1ccc(Cc2ccc(NC(C)=O)cc2)cc1
inactive: dose: 75.0 mg/kg/injection, schedule: Q01DX001 (ip), vehicle: Klucel (hydroxypropylcellulose) (HPC) 93 % of control | [10] 101 % of control | dose: 150.0 mg/kg/injection, schedule: Q01DX001 (ip), vehicle: Klucel (hydroxypropylcellulose) (HPC) 100 % of control | [11] 93 % of control | dose: 300.0 mg/kg/injection, schedule: Q01DX001 (ip), vehicle: Klucel (hydroxypropylcellulose) (HPC) 98 % of control | [12] 97 % of control

CCCCCCCCCCOc1ccc2ccccc2c1
inactive: [10] 100 % of control | [11] 94 % of control | [12] 91 % of control

O=C(C[n+]1ccccc1)c1ccc(Br)cc1
inactive: [13] 101 % of control | [14] 101 % of control | dose: 100.0 mg/kg/injection, schedule: Q01DX009 (ip), vehicle: saline 105 % of control

CCCCCCCCCCCCCCCCCC(=O)OC(C(O)C=O)C(O)C(O)CO (stereo not given)
inactive: [4] 95 % of control | [5] 109 % of control | [6] 95 % of control

CCOC(=O)C(=Cc1cccc2ccccc12)C(=O)OCC
inactive: [15] 98 % of control | [16] 101 % of control | [17] 105 % of control | [18] 98 % of control | [19] 93 % of control | [20] 92 % of control

OCC[N-]CCCN=Cc1ccccc1O.OCC[N-]CCCN=Cc1ccccc1O.[Co+2]
inactive: [21] 96 % of control | [14] 100 % of control

CCOC(=O)C(Cc1c[nH]c2ccccc12)NC(C)=O (stereo not given)
inactive: [4] 106 % of control | [5] 100 % of control | [6] 95 % of control

C[N+]1(C)CCCCC1
inactive: [7] 106 % of control | dose: 25.0 mg/kg/injection, schedule: Q01DX009 (ip), vehicle: saline 101 % of control | [13] 97 % of control | [9] 101 % of control

Cc1ccc(S(=O)(=O)Oc2cc(C)ccc2C)cc1
inactive: [22] 100 % of control | [16] 97 % of control | [23] 93 % of control | [18] 92 % of control | [24] 101 % of control | [20] 91 % of control

Cc1nc(SCc2ccc(Cl)cc2)[nH]c(=O)c1CC(C)O (stereo not given)
inactive: [25] 97 % of control | dose: 200.0 mg/kg/injection, schedule: Q04DX003 (ip), vehicle: saline 89 % of control | dose: 400.0 mg/kg/injection, schedule: Q04DX003 (ip), vehicle: saline 89 % of control

Nc1nnnn1-c1ccccc1-c1ccccc1
inactive: [15] 101 % of control | [17] 104 % of control | [19] 114 % of control

CC1(C)C(=O)C(C)(C)C1=Nc1ccccc1
inactive: [22] 95 % of control | [10] 108 % of control | [23] 94 % of control | [11] 106 % of control | [24] 97 % of control | [12] 106 % of control

CCCCCCCCNCCCCCCCC
inactive: dose: 4.62 mg/kg/injection, schedule: Q01DX009 (ip), vehicle: gum acacia 101 % of control | dose: 5.0 mg/kg/injection, schedule: Q01DX001 (ip), vehicle: other 95 % of control | dose: 9.25 mg/kg/injection, schedule: Q01DX009 (ip), vehicle: gum acacia 94 % of control | dose: 10.0 mg/kg/injection, schedule: Q01DX001 (ip), vehicle: other 95 % of control | dose: 18.5 mg/kg/injection, schedule: Q01DX009 (ip), vehicle: gum acacia 95 % of control | dose: 20.0 mg/kg/injection, schedule: Q01DX001 (ip), vehicle: other 90 % of control | dose: 37.0 mg/kg/injection, schedule: Q01DX009 (ip), vehicle: gum acacia 97 % of control | dose: 40.0 mg/kg/injection, schedule: Q01DX001 (ip), vehicle: other 93 % of control | dose: 80.0 mg/kg/injection, schedule: Q01DX001 (ip), vehicle: other 90 % of control | dose: 100.0 mg/kg/injection, schedule: Q01DX001 (ip), vehicle: other 100 % of control

O=S(=O)(C(Br)Br)C(Br)c1ccccc1 (stereo not given)
inactive: [14] 93 % of control | [26] 101 % of control | [27] 87 % of control

CC(=O)Nc1ccc(OC(C)=O)cc1[N+](=O)[O-]
inactive: [14] 105 % of control | [26] 102 % of control | [27] 102 % of control

Sc1ccccc1-n1c(-c2ccccc2)ccc1-c1ccccc1
inactive: [21] 96 % of control | [14] 93 % of control | [26] 98 % of control | [27] 87 % of control

O=C(C1C2C=CC(C2)C1C(=O)N1CCCCC1)N1CCCCC1 (stereo not given)
inactive: [8] 103 % of control | [9] 95 % of control | [10] 111 % of control | [25] 98 % of control | [11] 86 % of control

O=[N+]([O-])c1ccc(CC(O)c2ccccc2)cc1 (stereo not given)
inactive: dose: 50.0 mg/kg/injection, schedule: Q04DX003 (ip), vehicle: Klucel (hydroxypropylcellulose) (HPC) 105 % of control | [15] 111 % of control | [16] 102 % of control | [17] 107 % of control | [18] 105 % of control | [19] 103 % of control | [20] 105 % of control

CCCCCCCCCCCOP(=O)(OCC)OCC
inactive: [1] 95 % of control | [2] 95 % of control | [3] 106 % of control

Nc1ccc(-c2ccc(N)c(Br)c2)cc1Br
inactive: [4] 99 % of control | [5] 93 % of control
